Reference: paper PMC6443668, “Chiral phenoxyacetic acid analogues inhibit colon cancer cell proliferation acting as PPARγ partial agonists” (Scientific Reports, 2019)
Several values for one entry are separate records, joined by “and”; a condition that tells them apart may be missing. Equal values may be shown once. Read-outs that look alike come from different tables or passages of the source.

Assays:
HT-29 cells [1] = assay: Viability / proliferation assay in HT-29 cells (cell counting); settings: for Residual viability: remaining surviving cells
Text: We then evaluated the antiproliferative potential of the compounds by carrying out viability assays in HT-29, a CRC-derived cell line selected as it expresses substantial amounts of PPARγ1 with respect to the α and β/δ subtypes.
After treatment, the cells were washed with PBS, trypsinized and collected in culture medium. Cells were counted by means of a Burker’s hemocytometer and by automated cell counter (Roche Applied, Penzberg, Germany)[60].
Proliferation assay carried out on HT-29 cells treated or not with the indicated compounds at different concentrations ranging from 1 to 10 µM for 48 hs. HT-29 cells exposed or not to these compounds were harvested, washed with PBS, trypsinized and collected in culture medium. Cell counting was performed by means of a Burker’s hemocytometer. Three counts for each well were made and the mean value and the standard deviation were calculated.

PPARγ1 = target: T1, PPARγ1 (Homo sapiens, UniProt P37231); assay: PPRE-Luciferase reporter transactivation in HEK293 cells expressing PPARγ1; type: cell-based; settings: for Efficacy: PPARγ transactivation with respect to the full agonist RGZ taken as 100%; for EC50: PPARγ transactivation, PPRE-Luc reporter, HEK293 expressing PPARγ1, 24 hs treatment
T1 construct: a fixed and higher amount of an exogenous, full length PPARγ1; expressed in transfected cells
T1 sequence (P37231 1-477 isoform P37231-2): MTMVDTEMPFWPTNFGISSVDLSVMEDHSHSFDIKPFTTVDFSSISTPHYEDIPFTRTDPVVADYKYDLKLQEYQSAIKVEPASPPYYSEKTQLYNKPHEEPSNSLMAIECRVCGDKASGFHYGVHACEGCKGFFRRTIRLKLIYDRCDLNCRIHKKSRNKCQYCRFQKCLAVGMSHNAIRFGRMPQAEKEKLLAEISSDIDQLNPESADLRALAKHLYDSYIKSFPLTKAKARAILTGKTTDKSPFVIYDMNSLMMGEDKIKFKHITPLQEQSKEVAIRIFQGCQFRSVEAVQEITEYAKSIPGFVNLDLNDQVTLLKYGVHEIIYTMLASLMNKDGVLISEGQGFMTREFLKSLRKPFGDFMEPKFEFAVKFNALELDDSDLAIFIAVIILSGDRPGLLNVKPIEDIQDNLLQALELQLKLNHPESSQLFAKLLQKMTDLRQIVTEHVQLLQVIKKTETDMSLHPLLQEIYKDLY
Protocol: These cells were selected as a model system because they express low levels of the endogenous PPAR subtypes and a fixed and higher amount of an exogenous, full length PPARγ1; the differences in luciferase activity can, thus, be referred to PPARγ1 and to the different ligands used. Twenty-four hours after transfection, cells were treated for additional 24 hs with increasing doses of each compound (Table 2).
HEK293 cells that stably express an exogenous Flag-tagged PPARγ1 from a transfected PCDNA-3 vector carrying a complete PPARγ cDNA were used for transfection experiments. PPRE-Luc plasmid contains a luciferase reporter gene whose transcription is driven by the herpes simplex thymidine kinase (TK) promoter including three copies of the PPRE designed on the sequence of Acyl-CoA oxidase gene. […] The day before transfection, HEK293 stably expressing FLAG-PPARγ1 were plated in 12-well plates to reach 70% confluence. After 24 hs, growth medium was removed and substitute with OPTI-MEM, in absence of serum and antibiotics, and cells were transfected with the luciferase reporter gene (PPRE-Luc) using lipofectamine 2000 reagent as described. […] Transfection assays were performed in triplicate and the resulting transcriptional activities measured by luciferase assay. The values were normalized by β-galactosidase assay and the average value for each triplicate was calculated.

p21^waf1/cip1 [2] = assay: Western blotting of p21waf1/cip1 in RKO cells stably transfected with PPARG1; type: cell-based, human
Text: (§1) RKO cells were taken as control for assessing possible effects due to other PPAR receptors expressed at low levels in this cell or to PPARγ-independent effects elicited by GW9662, as reported.
(§2) Figure 4 PPARγ-dependent antiproliferative effect in CRC-derived RKO cells. Western blotting analysis of p21^waf1/cip1 expression in total protein extracts from CRC-derived RKO cells (A) and its derived clone overexpressing an ectopic PPARγ1 (B) using an anti-p21^waf1/cip1 antibody. An anti-β-actin antibody was used as a control for protein loading. The bar graphs represent the mean ± SD of […] of at least 3 independent experiments. *p ≤ 0.05, **p ≤ 0.01 compared to the control.
(§3) Total extracts from treated and untreated cells were obtained by lysis in Ripa buffer (150 mM NaCl, 50 mM Tris-HCl, pH 7.6, 10 mM EDTA, 1% NP-40) containing also a protease inhibitors cocktail and then centrifugated at 17,000 RCF for 10 min, at 4 °C. Total proteins in the supernatant were quantified and 80 μg of each sample were loaded on SDS-PAGE. Western blotting assays were carried out as previously reported.

caspase 3 = assay: Western blotting of caspase 3 in HT-29 cells; type: cell-based, human; settings: 10 µM, 48 hs
Protocol: (§4) (B) Early (Ann+/PI−) and late (Ann+/PI+) apoptotic cell populations were evaluated and reported in the graphic representation. The bar graphs are the means ± SD of three independent experiments. *p ≤ 0.05, **p ≤ 0.01, ***p ≤ 0.005 compared to the control. […] An anti-β-actin antibody was used as a control for protein loading. Significance is indicated as *p ≤ 0.05 compared to only vehicle. […] It is listed because a value is printed with its label.
as §3

HT-29 cells [3] = assay: Annexin V-FITC / propidium iodide apoptosis flow cytometry in HT-29 cells; type: cell-based, human; settings: 10 µM, 48 hs
Protocol: as §4
(§5) HT-29 cells were plated at similar confluency and synchronized by a 48 h serum deprivation in 0.1% FBS. […] At same time, another aliquot of cells was allowed to grow again in the complete medium containing 0,1% DMSO for the same times and was used as control. After treatment, DNA cell content was evaluated by FACS analysis as previously described. Evaluation of apoptotic cells was performed by staining cell treated or not with 10 μM of the indicated compounds for 48 hs with Annexin5-V-Fitc and propidium iodide. All flow cytometry results were analyzed by FACSuite Software.

HT-29 cells [4] = assay: Cell cycle analysis by flow cytometry (propidium iodide) in HT-29 cells; type: cell-based, human; settings: 1 to 25 µM, 48 hs, FACS
Protocol: We then investigated the cell cycle changes underlying the growth inhibition caused by (R,S)-3, (S)-3 and (R,S)-7 treatment. To this goal, HT-29 cells were cultured in proliferating medium for 24 hs and exposed for additional 48 hs to a medium containing different concentrations of the three compounds.
(§6) Data are means ± SD of two independent experiments. *p ≤ 0.05, **p ≤ 0.01 compared to the control. (B) Proliferating HT-29 cells were treated or not for 48 hs with 10 µM of the indicated compounds. Protein extracts were prepared and assessed for p21^waf1/cip1 expression in Western blotting analysis. β-Actin was used for protein load normalization. The bar graphs are the mean ± SD of three independent experiments. **p ≤ 0.01 compared to the control.
as §5

cyclin D1 = assay: Western blotting of cyclin D1 in HT-29 cells; type: cell-based, human; settings: 10 µM, 48 hs
Protocol: (§7) To better characterize the growth inhibition elicited by (R,S)-3, (S)-3 and (R,S)-7, we examined changes in the expression of proteins involved in cell cycle control (Figs 1B and 2A). […] The results paralleled those of the corresponding proteins and all together correlated with the flow cytometric data obtained in the same experimental conditions as reported in Fig. 1.
Proliferating HT-29 cells were treated for 48 hs with 10 µM of the indicated compounds. Specific antibodies against cyclin D1 (A), c-Myc (B), β-catenin (C) and PPARγ (D) respectively, were used in Western blotting analysis. An anti-β-actin antibody was used as a control for protein loading. The graphs of (A) and (B) represent the means ± SD of three independent experiments. **p ≤ 0.01, ***p ≤ 0.005 compared to the control. The bar graphs of (C,D) are the means ± SD of three independent experiments. *p ≤ 0.05 compared to the control. […] Luciferase activity is reported as fold induction after normalization to β-galactosidase activity used as control of transfection efficiency. […]
as §3, with “Western blotting assays were carried out as previously reported.” left out

c-Myc = assay: Western blotting of c-Myc in HT-29 cells; type: cell-based, human; settings: 10 µM, 48 hs
Protocol: (§8) Proliferating HT-29 cells were treated for 48 hs with 10 µM of the indicated compounds. Specific antibodies against cyclin D1 (A), c-Myc (B), β-catenin (C) and PPARγ (D) respectively, were used in Western blotting analysis. An anti-β-actin antibody was used as a control for protein loading. The graphs of (A) and (B) represent the means ± SD of three independent experiments. **p ≤ 0.01, ***p ≤ 0.005 compared to the control. The bar graphs of (C,D) are the means ± SD of three independent experiments. *p ≤ 0.05 compared to the control. […] Luciferase activity is reported as fold induction after normalization to β-galactosidase activity used as control of transfection efficiency. The graph represents the mean ± SD of two independent experiments performed in triplicate. *p ≤ 0.05 compared to LiCl exposure.
(§9) Indeed, cyclin D1 and c-Myc are target genes[38],[39] and, for these reasons, we evaluated c-Myc levels in untreated and treated HT-29 cells. […] Along this reasoning, we investigated β-catenin levels in the same experimental conditions. […]
as §3, with “Western blotting assays were carried out as previously reported.” left out

β-catenin/TCF pathway = assay: Top-FLASH reporter luciferase assay in LiCl-induced HEK-293 cells; type: cell-based; settings: HEK-293, Top-FLASH, 20 mM LiCl plus 1 µM compound, 24 hs, relative to LiCl alone
Protocol: as §8
To definitely confirm that (R,S)-3 and (S)-3 negatively affect c-Myc and cyclin D1 protein levels through down-regulation of their own gene transcription, we performed the TOP-flash reporter luciferase assay in LiCl-induced HEK-293 cells. […]
The Top-FLASH reporter plasmid containing three copies of TCF binding sites was transiently transfected into HEK293 cells with Lipofectamine 2000 (Invitrogen, Carlsbad, CA, USA) in 24-well plates. […] Luciferase activity was measured after 24 h of compounds treatment and normalized to β-galactosidase. […]

p21^waf1/cip1 [5] = assay: Western blotting of p21waf1/cip1 in parental RKO cells (no endogenous PPARG); type: cell-based, human; settings: 10 µM, 48 hs
Text: as §1, §2, §3

β-catenin = assay: Western blotting of β-catenin in HT-29 cells; type: cell-based, human; settings: 10 µM, 48 hs
Protocol: as §8, §9
as §3, with “Western blotting assays were carried out as previously reported.” left out

p21^waf1/cip1 [6] = assay: Western blotting of p21waf1/cip1 in HT-29 cells; type: cell-based, human; settings: 10 µM, 48 hs
Protocol: as §6, §7, §3

[7] = read-out: Proliferation IC50, HT-29 cells, concentration range 1 to 25 µM
[8] = Homo sapiens, HT-29, read-out: Proliferation IC50

Row | Compound | Residual viability (HT-29 cells [1]; HT-29 cells) [%] | IC50 (HT-29 cells [1]; [7]) [µM] | Efficacy (PPARγ1) | EC50 (PPARγ1) [nM] | Apoptosis induction (HT-29 cells [3]) | IC50 (HT-29 cells [1]; [8]) [µM] | cyclin D1 protein level (cyclin D1) | Luciferase activity remaining on co-treatment with LiCl (β-catenin/TCF pathway) | p21waf1/cip1 protein expression (p21^waf1/cip1 [6]) | other results
1 | O=C(O)C(CCCc1ccccc1)Oc1ccc(Cl)cc1 (racemic) [(R,S)-2] | 70 ± 2.5 | 12.1 ± 1.2 | 48 ± 2.1% | 540 ± 100 |  |  |  |  |  | 
2 | O=C(O)C(CCCCc1ccccc1)Oc1ccc(Cl)cc1 (racemic) [(R,S)-4] | 60 ± 0.5 | 10.1 ± 0.4 | 60 ± 1.1% | 350 ± 70 |  |  |  |  |  | 
3 | O=C(O)[C@@H](CCc1ccccc1)Oc1ccc(Cl)cc1 [(R)-1] | 77 ± 3.1 | 19.7 ± 1.7 | 45 ± 1.3% | 640 ± 60 |  |  |  |  |  | 
4 | O=C(O)[C@H](CCCc1ccc(Cl)cc1)Oc1ccc(Cl)cc1 [(S)-3] | 31 ± 1.3 |  | 55% and 55 ± 1.2% | 400 ± 50 | stimulated apoptosis | 4.8 ± 0.35 | reduction more evident | about 60% | robust increase | p21waf1/cip1 expression (p21^waf1/cip1 [2]; RKO clone expressing exogenous PPARγ1, 10 µM, 48 hs): induced accumulation; Caspase 3 activation (precursor reduced, cleaved form increased) (caspase 3): strongest effect; Cell cycle changes (HT-29 cells [4]): significant increase of cells in the sub G0/G1 phase; c-Myc protein level (c-Myc): reduction; p21waf1/cip1 expression (p21^waf1/cip1 [5]): no p21^waf1/cip1 variations; β-catenin protein level (β-catenin): reduction
5 | O=C(Nc1ccccc1)c1cc([N+](=O)[O-])ccc1Cl [GW9662, reference compound] |  |  |  |  |  |  |  |  |  | Effect of the antagonist on compound-induced p21waf1/cip1 accumulation (p21^waf1/cip1 [2]; RKO clone expressing PPARγ1, co-treatment with (R,S)-3, (S)-3 or (R,S)-7): reverted the effect
6 | CN(CCOc1ccc(CC2SC(=O)NC2=O)cc1)c1ccccn1 (centres unmarked) [RGZ, rosiglitazone, reference compound] |  |  |  |  | stimulated apoptosis | 9.8 ± 0.4 | reduction | 80% | slight | 
